For assay [1], the target named is E. coli XGPRT (Escherichia coli (strain K12), UniProt P0A9M5). Briefly: Ki values with E. coli XGPRT. Conditions: read-out: Ki (μM) XGPRT.
For assay [2], the system named is P. falciparum strain D6. Briefly: [3H]-hypoxanthine growth inhibition assay, P. falciparum D6. Conditions: Plasmodium falciparum; for IC50: D6, read-out: D6 IC50; for IC90: D6, read-out: D6 IC90.
In assay [3] the test system is P. falciparum strain W2. Briefly: [3H]-hypoxanthine growth inhibition assay, P. falciparum W2. Conditions: Plasmodium falciparum; for IC50: W2, read-out: W2 IC50; for IC90: W2, read-out: W2 IC90.
The target in assay [4] is PvHGPRT (Plasmodium vivax, UniProt A5K7E9). The assay is described as follows: biochemical. Conditions: for Ki ratio (proto:phosphonatoethyl): PvHGPRT, decrease in Ki when N-H is replaced by phosphonoethyl.
The target in assay [5] is human HGPRT (Homo sapiens (Human), UniProt P00492). The assay is described as follows: Ki determination, spectrophotometric assay, human HGPRT. Conditions: Ki(app), 25° C., pH 7.4, guanine 60 μM. In kind it is biochemical.
In assay [6] the target is PfHGXPRT (Plasmodium falciparum (isolate FCR-3 / Gambia), UniProt P20035). The assay is described as follows: biochemical. It is filed as biochemical.
Assay [7] deals with M. tuberculosis H37Ra (ATCC 25177). The assay is described as follows: Resazurin reduction microplate assay, M. tuberculosis. Conditions: five days at 37° C., resazurin fluorescence. For orientation: The colour change of resazurin is a common sign of viable cells or microbes.
The mark [8] stands for this setting: Ki(app), 25° C., pH 7.4, guanine 60 μM, read-out: Ki Pf.
Setting [9] is: Ki(app), 25° C., pH 7.4, guanine 60 μM, read-out: Ki Pv.

Where two headings read alike, the source gives them in different places.

human HGPRT, sequence (P00492 whole entry): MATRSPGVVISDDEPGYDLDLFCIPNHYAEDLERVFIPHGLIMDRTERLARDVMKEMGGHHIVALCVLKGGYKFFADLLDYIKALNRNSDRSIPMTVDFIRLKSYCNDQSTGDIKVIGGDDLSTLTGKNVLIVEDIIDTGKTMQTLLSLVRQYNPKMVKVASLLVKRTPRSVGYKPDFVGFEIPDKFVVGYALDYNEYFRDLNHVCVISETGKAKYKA
PvHGPRT, sequence (A5K7E9 1-233): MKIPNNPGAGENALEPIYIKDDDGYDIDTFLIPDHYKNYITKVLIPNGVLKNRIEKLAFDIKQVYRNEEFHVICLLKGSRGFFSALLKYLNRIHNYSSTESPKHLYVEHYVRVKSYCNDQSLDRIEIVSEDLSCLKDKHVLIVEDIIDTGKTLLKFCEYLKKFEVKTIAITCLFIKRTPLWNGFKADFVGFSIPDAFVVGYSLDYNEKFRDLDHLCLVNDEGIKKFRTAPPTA

On to `Nc1nc2c(ncn2CCN(CCOCP(=O)(O)O)CCP(=O)(O)O)c(=O)[nH]1` [Compound 1], for which the Ki in assay [1] was determined as 0.4 µM.

For `Nc1nc2c(ncn2CCN(CCP(=O)(O)O)CP(=O)(O)O)c(=O)[nH]1` [Compound 2], the Ki in assay [1] came to 27 µM.

As usually defined, the IC50 is the point on the concentration scale where inhibition reaches its midpoint. By IC90 is commonly meant the concentration needed for an effect of 90%. In the case of `N#CCCCN(CCn1cnc2c(=O)[nH]c(N)nc21)CCP(=O)(O)O` [Compound 4], the IC50 in assay [2] was found to be 8.6 ± 1.5 µM; in assay [3] it was 5.7 ± 3.9 µM. In addition, the IC90 worked out at 24.5 ± 3.5 µM in assay [2] and 32.5 ± 3.5 µM in assay [3].

For `CCOC(=O)[C@H](Cc1ccccc1)NP(=O)(CCN(CCCC#N)CCn1cnc2c(=O)[nH]cnc21)N[C@@H](Cc1ccccc1)C(=O)OCC` [Compound 6], in assay [2], the IC50 was found to be 4.2 ± 1.4 µM and the IC90 amounted to 10.6 ± 1.8 µM. Also, in assay [3], the IC50 stood at 5.5 ± 1.6 µM and the IC90 worked out at 16.1 ± 0.1 µM.

For the molecule `COC(=O)CCN(CCn1cnc2c(=O)[nH]c(N)nc21)CCP(=O)(O)O` [Compound 8], the values for the IC50 in assay [2] and in assay [3] were 3.5 ± 1 µM and 2.9 ± 1.1 µM, respectively. For the same molecule, the concentration for an effect of 90% (IC90) in assay [2] is 8.6 ± 1.4 µM; in assay [3], 15.9 ± 4.5 µM.

On to `CCOC(=O)[C@H](Cc1ccccc1)NP(=O)(CCN(CCC(=O)OC)CCn1cnc2c(=O)[nH]c(N)nc21)N[C@@H](Cc1ccccc1)C(=O)OCC` [Compound 10], for which the IC50 was determined as 11.8 ± 1.6 µM in assay [2] and 5.6 ± 1.8 µM in assay [3]. Further, the figures for the IC90 in assay [2] and in assay [3] were 30 ± 2.9 µM and 37.5 ± 3.5 µM, respectively.

On to `N#CCCN(CCn1cnc2c(=O)[nH]c(N)nc21)CCP(=O)(O)O` [Compound 11], for which the IC50 in assay [2] is about 145 µM.

Consider `N#CCCN(CCn1cnc2c(=O)[nH]cnc21)CCP(=O)(O)O` [Compound 12], for which, in assay [2], the IC50 is 6.4 ± 0.9 µM and the IC90 was determined as 10.2 ± 1.6 µM. In assay [3], the IC50 was found to be 10.4 ± 2 µM and the IC90 worked out at 21.2 ± 1 µM.

Regarding `CCCOC(=O)[C@H](Cc1ccccc1)NP(=O)(CCN(CCC#N)CCn1cnc2c(=O)[nH]c(N)nc21)N[C@@H](Cc1ccccc1)C(=O)OCCC` [Compound 13], in assay [2], the IC50 was determined as 75 µM and the IC90 came to 215 µM.

As to `CCCOC(=O)[C@H](Cc1ccccc1)NP(=O)(CCN(CCC#N)CCn1cnc2c(=O)[nH]cnc21)N[C@@H](Cc1ccccc1)C(=O)OCCC` [Compound 14], in assay [2], the IC50 was 12.3 ± 1.6 µM and the IC90 is 18.7 ± 1.7 µM. Moreover, in assay [3], the IC50 came to 19.3 ± 7.5 µM and the IC90 is 48 ± 13.6 µM.

Regarding `COC(=O)CCCN(CCn1cnc2c(=O)[nH]c(N)nc21)CCP(=O)(O)O` [Example 3, 9-[(N-(4-Methoxy-4-oxobutyl)-N-(2-phosphonoethyl))-2-aminoethyl]guanine], the Ki in assay [4] (Ki Pv) is at least 200 µM.

Turning to `Nc1nc2c(ncn2CCN(CCP(=O)(O)O)CCP(=O)(O)O)c(=O)[nH]1` [Example 11, 9-[(N,N-(Bis-2-phosphonoethyl))-2-aminoethyl]guanine], the “Ki ratio (proto:phosphonatoethyl)” value in assay [4] is listed as 12-fold.

As for `Nc1nc2c(ncn2CCNCCP(=O)(O)O)c(=O)[nH]1` [Example 12, 9-[(N-(2-Phosphonoethyl))-2-aminoethyl]guanine], the Ki in assay [5] was 3 ± 0.6 µM; in assay [6] (setting [8]), 16 ± 1 µM; in assay [4] (setting [9]) it was 11 ± 0.6 µM.

For the molecule `CCOC(=O)CN(CCn1cnc2c(=O)[nH]cnc21)CCP(=O)(O)O` [Example 15, 9-[(N-(2-Ethoxy-2-oxoethyl)-N-(2-phosphonoethyl))-2-aminoethyl]hypoxanthine], the figures for the Ki in assay [5], in assay [6] (setting [8]) and in assay [4] (setting [9]) were 2.6 ± 0.5 µM, 1.9 ± 0.4 µM and 11 ± 1 µM, respectively.

In the case of `COC(=O)CCN(CCn1cnc2c(=O)[nH]cnc21)CCP(=O)(O)O` [Example 16, 9-[(N-(3-Methoxy-3-oxopropyl)-N-(2-phosphonoethyl))-2-aminoethyl]hypoxanthine], the values for the Ki in assay [5], in assay [6] (setting [8]) and in assay [4] (setting [9]) were at least 200 µM, 0.1 ± 0.03 µM and 21 ± 2 µM, respectively.

In the case of `COC(=O)CCCN(CCn1cnc2c(=O)[nH]cnc21)CCP(=O)(O)O` [Example 17, 9-[(N-(4-Methoxy-4-oxobutyl)-N-(2-phosphonoethyl))-2-aminoethyl] hypoxanthine], the Ki in assay [5] is 22 ± 3 µM; in assay [6] (setting [8]), at least 220 µM; in assay [4] (setting [9]) it was at least 250 µM.

Take `N#CCN(CCn1cnc2c(=O)[nH]cnc21)CCP(=O)(O)O` [Example 18, 9-[(N-(2-Cyanomethyl)-N-(2-phosphonoethyl))-2-aminoethyl]hypoxanthine]: the values for the Ki in assay [5], in assay [6] (setting [8]) and in assay [4] (setting [9]) were 35 µM, at least 250 µM and 47 ± 5 µM, respectively.

For the molecule `N#CCCN(CCn1cnc2c(=O)[nH]cnc21)CCP(=O)(O)O` [Example 19, 9-[(N-(2-Cyanoethyl)-N-(2-phosphonoethyl))-2-aminoethyl]hypoxanthine], the Ki came to 2.4 ± 0.2 µM in assay [5], 0.2 ± 0.05 µM in assay [6] (setting [8]) and 0.7 ± 0.06 µM in assay [4] (setting [9]).

For the molecule `CC(C#N)CN(CCn1cnc2c(=O)[nH]cnc21)CCP(=O)(O)O` (stereo not shown) [Example 20, 9-[(N-(2-Cyanopropyl)-N-(2-phosphonoethyl))-2-aminoethyl]hypoxanthine], the Ki was 29 ± 2 µM in assay [5], 6 ± 0.06 µM in assay [6] (setting [8]) and at least 230 µM in assay [4] (setting [9]).

On to `O=C(O)CN(CCn1cnc2c(=O)[nH]cnc21)CCP(=O)(O)O` [Example 21, 9-[(N-(Carboxymethyl)-N-(2-phosphonoethyl))-2-aminoethyl]hypoxanthine], for which the Ki in assay [6] came to 0.6 ± 0.06 µM.

Take `O=C(O)CCN(CCn1cnc2c(=O)[nH]cnc21)CCP(=O)(O)O` [Example 22, 9-[(N-(2-Carboxyethyl)-N-(2-phosphonoethyl))-2-aminoethyl]hypoxanthine]: the Ki in assay [5] was at least 240 µM; in assay [6] (setting [8]), 0.4 ± 0.03 µM; in assay [4] (setting [9]), 41 ± 5 µM.

In assay [6], `O=C(O)CCCN(CCn1cnc2c(=O)[nH]cnc21)CCP(=O)(O)O` [Example 23, 9-[(N-(Carboxypropyl)-N-(2-phosphonoethyl))-2-aminoethyl]hypoxanthine] gave a Ki of at least 210 µM.

For `O=c1[nH]cnc2c1ncn2CCN(CCO)CCP(=O)(O)O` [Example 24, 9-[(N-(2-Hydroxyethyl)-N-(2-phosphonoethyl))-2-aminoethyl]hypoxanthine], the Ki is 5.5 ± 0.4 µM in assay [5], 2.6 ± 0.4 µM in assay [6] (setting [8]) and 21 ± 3 µM in assay [4] (setting [9]).

With `O=c1[nH]cnc2c1ncn2CCN(CCP(=O)(O)O)CCP(=O)(O)O` [Example 25, 9-[(N,N-(Bis-2-phosphonoethyl))-2-aminoethyl]hypoxanthine], the Ki in assay [6] worked out at 0.4 ± 0.1 µM. The “Ki ratio (proto:phosphonatoethyl)” value in assay [4] is >20-fold.

For `O=c1[nH]cnc2c1ncn2CCNCCP(=O)(O)O` [Example 26, 9-[(N-(2-Phosphonoethyl))-2-aminoethyl]hypoxanthine], the Ki in assay [5] is 40 ± 2 µM; in assay [6] it was at least 200 µM; in assay [4] (setting [9]), at least 250 µM.

On to `Nc1nc2c(ncn2CCOCCP(=O)(O)O)c(=O)[nH]1` [PEEG, 2-(Phosphonoethoxy)ethyl guanine, reference compound], for which the Ki in assay [5] was determined as 1 ± 0.5 µM; in assay [6] (setting [8]), 0.1 ± 0.02 µM.

For the molecule `O=c1[nH]cnc2c1ncn2CCOCCP(=O)(O)O` [PEEHx, 2-(phosphonoethoxy)ethyl hypoxanthine, reference compound], the Ki in assay [5] was determined as 3.6 ± 0.2 µM; in assay [6] (setting [8]), 0.3 ± 0.04 µM.

With `CCOC(=O)[C@H](Cc1ccccc1)NP(=O)(CCN(CCCC#N)CCn1cnc2c(=O)[nH]cnc21)N[C@@H](Cc1ccccc1)C(=O)OCC` [drawing 83], the IC50 in assay [7] came to 60 µM.
